Here are results for eight compounds from patent publication US20150239833A1, “COMPOSITION, SYNTHESIS, AND USE OF NEW ARYLSULFONYL ISONITRILES” (DUQUESNE UNIVERSITY OF THE HOLY GHOST, priority 2014, published 2015).

In general, melting point refers to the temperature, or range, at which the solid turns liquid.

`[C-]#[N+]CS(=O)(=O)c1ccccc1` [compound 3a, ((Isocyanomethyl)sulfonyl)benzene] returned a melting point of 89 to 90 °C.
`[C-]#[N+]CS(=O)(=O)c1ccc(C)cc1` [compound 3b, 1-((isocyanomethyl)sulfonyl)-4-methylbenzene]: the melting point fell in the range of 112 to 113 °C.
Under `[C-]#[N+]CS(=O)(=O)c1ccc2ccccc2c1` [compound 3d, 2-((isocyanomethyl)sulfonyl)naphthalene] stands 104 to 105 °C; under `[C-]#[N+]CS(=O)(=O)c1ccc(F)cc1` [compound 3e, 1-fluoro-4-((isocyanomethyl)sulfonyl)benzene], 63 °C.
Under `[C-]#[N+]CS(=O)(=O)c1ccc(Cl)cc1` [compound 3f, 1-Chloro-4-((isocyanomethyl)sulfonyl)benzene] stands 109 to 110 °C (dec.).
Under `[C-]#[N+]CS(=O)(=O)c1cc(Cl)cc(Cl)c1` [compound 3h, 1,3-dichloro-5-((isocyanomethyl)sulfonyl)benzene] stands 82 to 83 °C.
In turn, `[C-]#[N+]CS(=O)(=O)c1ccc(OC)c(OC)c1` [compound 3k, 4-((isocyanomethyl)sulfonyl)-1,2-dimethoxybenzene] yielded a melting point of 101 to 102 °C.
As for `[C-]#[N+]CS(=O)(=O)c1c(OC)cccc1OC` [compound 3p, 2-((Isocyanomethyl)sulfonyl)-1,3-dimethoxybenzene], the figure is 90 to 91 °C.
